Organism: Rattus norvegicus
Experiment: Open TG-GATES - Regimen: Daily Repeat
Type: toxicity, organism-based, Sprague-Dawley
Design: regimen Daily Repeat, gender Male, age 6 weeks
Conditions: in vivo, po, 100 mg/kg, route gavage, dose level High; for APTT / Bas / Eos / Fbg / Hb / Ht / Lym / MCH / MCHC / MCV / Mono / Neu / PT / Plat / RBC / Ret / WBC: tissue Blood; for KIDNEY_L / KIDNEY_R / KIDNEY_TOTAL: tissue Kidney; for LIVER: tissue Liver; for A/G / ALP / ALT / AST / BUN / CRE / Ca / Cl / DBIL / GLC / IP / K / LDH / Na / PL / RALB / TBIL / TC / TG / TP / gamma-GTP: tissue Plasma

NC(=O)N/N=C/c1ccc([N+](=O)[O-])o1 [NITROFURAZONE]
TERMINAL_BW (72 h, time 3 day): 206.6 g
APTT (72 h, time 3 day): 15 s
Bas (72 h, time 3 day): 0%
Eos (72 h, time 3 day): 1%
Fbg (72 h, time 3 day): 297 mg/dL
Hb (72 h, time 3 day): 12.7 g/dL
Ht (72 h, time 3 day): 38.8%
Lym (72 h, time 3 day): 83.6%
MCH (72 h, time 3 day): 21.5 pg
MCHC (72 h, time 3 day): 32.8%
MCV (72 h, time 3 day): 65.6 fL
Mono (72 h, time 3 day): 2.8%
Neu (72 h, time 3 day): 11.6%
PT (72 h, time 3 day): 14.6 s
Plat (72 h, time 3 day): 102.7 x10_4/uL
RBC (72 h, time 3 day): 593 x10_4/ul
Ret (72 h, time 3 day): 7%
WBC (72 h, time 3 day): 86.2 x10_2/uL
KIDNEY_L (72 h, time 3 day): 0.9 g
KIDNEY_R (72 h, time 3 day): 1 g
KIDNEY_TOTAL (72 h, time 3 day): 1.9 g
LIVER (72 h, time 3 day): 10.9 g
A/G (72 h, time 3 day): 0.9
ALP (72 h, time 3 day): 1305.8 IU/L
ALT (72 h, time 3 day): 41.4 IU/L
AST (72 h, time 3 day): 71.4 IU/L
BUN (72 h, time 3 day): 16 mg/dL
CRE (72 h, time 3 day): 0.2 mg/dL
Ca (72 h, time 3 day): 11 mg/dL
Cl (72 h, time 3 day): 104 meq/L
DBIL (72 h, time 3 day): 0.016 mg/dL
GLC (72 h, time 3 day): 176.4 mg/dL
IP (72 h, time 3 day): 7.8 mg/dL
K (72 h, time 3 day): 4.5 meq/L
LDH (72 h, time 3 day): 67.6 IU/L
Na (72 h, time 3 day): 141 meq/L
PL (72 h, time 3 day): 154.8 mg/dL
RALB (72 h, time 3 day): 2.6 g/dL
TBIL (72 h, time 3 day): 0.068 mg/dL
TC (72 h, time 3 day): 89.6 mg/dL
TG (72 h, time 3 day): 66.8 mg/dL
TP (72 h, time 3 day): 5.5 g/dL
gamma-GTP (72 h, time 3 day): 1 IU/L
TERMINAL_BW ([…], time 7 day): 222.5 g
TERMINAL_BW ([…], time 14 day): 223.7 g
TERMINAL_BW ([…], time 28 day): 311.4 g
APTT ([…], time 7 day): 16 s
Bas ([…], time 7 day): 0%
Eos ([…], time 7 day): 0.8%
Fbg ([…], time 7 day): 271.8 mg/dL
Hb ([…], time 7 day): 13.2 g/dL
Ht ([…], time 7 day): 38.8%
Lym ([…], time 7 day): 85.2%
MCH ([…], time 7 day): 20.6 pg
MCHC ([…], time 7 day): 34.1%
MCV ([…], time 7 day): 60.3 fL
Mono ([…], time 7 day): 2.5%
Neu ([…], time 7 day): 10.2%
PT ([…], time 7 day): 14.5 s
Plat ([…], time 7 day): 106.2 x10_4/uL
RBC ([…], time 7 day): 643 x10_4/ul
Ret ([…], time 7 day): 5.5%
WBC ([…], time 7 day): 113.2 x10_2/uL
APTT ([…], time 14 day): 15.4 s
Bas ([…], time 14 day): 0.2%
Eos ([…], time 14 day): 0.8%
Fbg ([…], time 14 day): 318.8 mg/dL
Hb ([…], time 14 day): 14.1 g/dL
Ht ([…], time 14 day): 41.5%
Lym ([…], time 14 day): 86.8%
MCH ([…], time 14 day): 19.7 pg
MCHC ([…], time 14 day): 34%
MCV ([…], time 14 day): 57.9 fL
Mono ([…], time 14 day): 2.6%
Neu ([…], time 14 day): 8.8%
PT ([…], time 14 day): 15.1 s
Plat ([…], time 14 day): 121 x10_4/uL
RBC ([…], time 14 day): 720 x10_4/ul
Ret ([…], time 14 day): 3.8%
WBC ([…], time 14 day): 108.8 x10_2/uL
APTT ([…], time 28 day): 16.6 s
Bas ([…], time 28 day): 0.2%
Eos ([…], time 28 day): 1%
Fbg ([…], time 28 day): 368.6 mg/dL
Hb ([…], time 28 day): 13.9 g/dL
Ht ([…], time 28 day): 41.3%
Lym ([…], time 28 day): 85.8%
MCH ([…], time 28 day): 19.4 pg
MCHC ([…], time 28 day): 33.5%
MCV ([…], time 28 day): 57.9 fL
Mono ([…], time 28 day): 2.8%
Neu ([…], time 28 day): 9.2%
PT ([…], time 28 day): 14.3 s
Plat ([…], time 28 day): 107.6 x10_4/uL
RBC ([…], time 28 day): 714.8 x10_4/ul
Ret ([…], time 28 day): 3.8%
WBC ([…], time 28 day): 116.7 x10_2/uL
KIDNEY_L ([…], time 7 day): 1.1 g
KIDNEY_R ([…], time 7 day): 1 g
KIDNEY_TOTAL ([…], time 7 day): 2.1 g
KIDNEY_L ([…], time 14 day): 1.1 g
KIDNEY_R ([…], time 14 day): 1.1 g
KIDNEY_TOTAL ([…], time 14 day): 2.2 g
KIDNEY_L ([…], time 28 day): 1.5 g
KIDNEY_R ([…], time 28 day): 1.5 g
KIDNEY_TOTAL ([…], time 28 day): 3 g
LIVER ([…], time 7 day): 11.4 g
LIVER ([…], time 14 day): 10.8 g
LIVER ([…], time 28 day): 14.2 g
A/G ([…], time 7 day): 0.9
ALP ([…], time 7 day): 1211 IU/L
ALT ([…], time 7 day): 32.2 IU/L
AST ([…], time 7 day): 56.8 IU/L
BUN ([…], time 7 day): 14 mg/dL
CRE ([…], time 7 day): 0.2 mg/dL
Ca ([…], time 7 day): 11 mg/dL
Cl ([…], time 7 day): 102.5 meq/L
DBIL ([…], time 7 day): 0.015 mg/dL
GLC ([…], time 7 day): 162.2 mg/dL
IP ([…], time 7 day): 7.4 mg/dL
K ([…], time 7 day): 3.9 meq/L
LDH ([…], time 7 day): 55 IU/L
Na ([…], time 7 day): 141.2 meq/L
PL ([…], time 7 day): 146.8 mg/dL
RALB ([…], time 7 day): 2.6 g/dL
TBIL ([…], time 7 day): 0.055 mg/dL
TC ([…], time 7 day): 87 mg/dL
TG ([…], time 7 day): 39.5 mg/dL
TP ([…], time 7 day): 5.6 g/dL
gamma-GTP ([…], time 7 day): 1 IU/L
A/G ([…], time 14 day): 0.9
ALP ([…], time 14 day): 975.2 IU/L
ALT ([…], time 14 day): 27.2 IU/L
AST ([…], time 14 day): 86.4 IU/L
BUN ([…], time 14 day): 17.8 mg/dL
CRE ([…], time 14 day): 0.2 mg/dL
Ca ([…], time 14 day): 10.5 mg/dL
Cl ([…], time 14 day): 104.8 meq/L
DBIL ([…], time 14 day): 0.02 mg/dL
GLC ([…], time 14 day): 150.2 mg/dL
IP ([…], time 14 day): 7.9 mg/dL
K ([…], time 14 day): 3.7 meq/L
LDH ([…], time 14 day): 99.2 IU/L
Na ([…], time 14 day): 144 meq/L
PL ([…], time 14 day): 138.6 mg/dL
RALB ([…], time 14 day): 2.7 g/dL
TBIL ([…], time 14 day): 0.078 mg/dL
TC ([…], time 14 day): 92.6 mg/dL
TG ([…], time 14 day): 34.6 mg/dL
TP ([…], time 14 day): 5.9 g/dL
gamma-GTP ([…], time 14 day): 1.2 IU/L
A/G ([…], time 28 day): 0.8
ALP ([…], time 28 day): 579.8 IU/L
ALT ([…], time 28 day): 21 IU/L
AST ([…], time 28 day): 58.6 IU/L
BUN ([…], time 28 day): 14.8 mg/dL
CRE ([…], time 28 day): 0.2 mg/dL
Ca ([…], time 28 day): 10 mg/dL
Cl ([…], time 28 day): 103.4 meq/L
DBIL ([…], time 28 day): 0.016 mg/dL
GLC ([…], time 28 day): 144.6 mg/dL
IP ([…], time 28 day): 7.5 mg/dL
K ([…], time 28 day): 3.6 meq/L
LDH ([…], time 28 day): 51.2 IU/L
Na ([…], time 28 day): 144.6 meq/L
PL ([…], time 28 day): 149.6 mg/dL
RALB ([…], time 28 day): 2.8 g/dL
TBIL ([…], time 28 day): 0.096 mg/dL
TC ([…], time 28 day): 104.2 mg/dL
TG ([…], time 28 day): 36 mg/dL
TP ([…], time 28 day): 6.2 g/dL
gamma-GTP ([…], time 28 day): 1.2 IU/L
